Assay results reported in article PMC7126465 (Bioorganic & Medicinal Chemistry, 2017).
Where two headings read alike, the source gives them in different places.

Experiments:
[1] = test system: human embryonic lung (HEL) cells; experiment: Cytotoxicity, alteration of cell morphology; assay type: cell-based; conditions: microscopically detectable alteration of cell morphology
[2] = test system: herpesviruses (HSV, VZV, HCMV); experiment: Anti-herpesvirus activity overall; assay type: cell-based; conditions: for Anti-herpesvirus activity (in words): HEL cells
HSV = experiment: organism not typed; assay type: cell-based, herpes simplex virus; conditions: for EC50: HEL, read-out: EC50 range against HSV
VZV = experiment: microbe, parasite or virus in culture; assay type: cell-based, varicella-zoster virus; conditions: for EC50: Human alphaherpesvirus 3, HEL, read-out: EC50 range against VZV
HCMV = experiment: microbe, parasite or virus in culture; assay type: cell-based, human cytomegalovirus; conditions: for EC50: read-out: EC50 range against HCMV
Vaccinia virus = experiment: microbe, parasite or virus in culture; assay type: cell-based, vaccinia virus Lederle strain; conditions: for EC50: read-out: EC50 (HEL) Vaccinia virus
HSV-2 (G) = experiment: Antiviral CPE inhibition, HSV-2; assay type: cell-based, herpes simplex virus type 2; conditions: read-out: EC50 (HEL) HSV-2 (G); HEL cells
HSV-1 TK− KOS ACVr = experiment: Antiviral CPE inhibition, TK- HSV-1 KOS ACVr in HEL cells; assay type: cell-based, herpes simplex virus type 1; conditions: read-out: EC50 (HEL) HSV-1 TK− KOS ACVr
VZV TK+ (Oka) = assay type: cell-based, varicella-zoster virus; conditions: read-out: EC50 (HEL) VZV TK+ (Oka); HEL cells
VZV TK− (07-1) = assay type: cell-based, varicella-zoster virus; conditions: read-out: EC50 (HEL) VZV TK− (07-1)
HCMV (AD-169) = experiment: Antiviral assay, HCMV; assay type: cell-based, human cytomegalovirus; conditions: read-out: EC50 (HEL) HCMV (AD-169); HEL cells
HCMV (Davis) = experiment: Antiviral assay, HCMV; assay type: cell-based, human cytomegalovirus; conditions: read-out: EC50 (HEL) HCMV (Davis); HEL cells
[3] = test system: human embryonic lung (HEL) cells; experiment: Cytostatic activity, inhibition of HEL cell growth; assay type: cell-based

Compound: CC(C)OC(=O)OCOP(=O)(COCCn1cnc(N)nc1=O)OCOC(=O)OC(C)C [Compound 7, Bis[(isopropoxycarbonyl)oxymethyl] ester of 1-[2-(phosphonomethoxy)ethyl]-5-azacytosine]
- Cytotoxicity MCC (minimum cytotoxic concentration) [1]: >100 µM

Compound: CCCCCCCCCCCCCCCCCCOCCNc1ncn(CCOCP(=O)(OCCOCCCCCCCCCCCCCCCCCC)OCCOCCCCCCCCCCCCCCCCCC)c(=O)n1 [Compound 16, Bis(octadecyloxyethyl) ester of N^4-octadecyloxyethyl-1-[2-(phosphonomethoxy)ethyl]-5-azacytosine]
- Cytotoxicity MCC (minimum cytotoxic concentration) [1]: 100 µM
- Anti-herpesvirus activity (in words) [2]: deprived of anti-herpesvirus properties

Compound: CCCCCCCCCCCCCCCCCCOCCOP(=O)(COCCn1cnc(N)nc1=O)OCCOCCCCCCCCCCCCCCCCCC [Compound 15, Bis(octadecyloxyethyl) ester of 1-[2-(phosphonomethoxy)ethyl]-5-azacytosine]
- Cytotoxicity MCC (minimum cytotoxic concentration) [1]: 20 µM
- Anti-herpesvirus activity (in words) [2]: deprived of anti-herpesvirus properties

Compound: CCCCCCCCCCCCCCCCNC(=O)[C@@H](N)Cc1ccc(OP(=O)(COCCn2cnc(N)nc2=O)Oc2ccc(C[C@H](N)C(=O)NCCCCCCCCCCCCCCCC)cc2)cc1 [Compound 23, Bis(Hexadecylamido-L-tyrosyl) ester of 1-[2-(phosphonomethoxy)ethyl]-5-azacytosine]
- Cytotoxicity MCC (minimum cytotoxic concentration) [1]: 60 ± 57 µM
- Selectivity index (SI, ratio CC50/EC50) HSV (HSV): 45–68
- Selectivity index (SI, ratio CC50/EC50) VZV (VZV): 47–93
- Selectivity index (SI, ratio CC50/EC50) HCMV (HCMV): 13–56

Compound: Nc1ccn(C[C@@H](CO)OCP(=O)(O)O)c(=O)n1.O.O [Cidofovir, reference compound]
- Cytotoxicity MCC (minimum cytotoxic concentration) [1]: ≥300 µM

Compound: Nc1nc2c(ncn2COCCO)c(=O)[nH]1 [Acyclovir, reference compound]
- Cytotoxicity MCC (minimum cytotoxic concentration) [1]: >440 µM

Compound: O=c1[nH]c(=O)n([C@H]2C[C@H](O)[C@@H](CO)O2)cc1/C=C/Br [Brivudin, reference compound]
- Cytotoxicity MCC (minimum cytotoxic concentration) [1]: 300 µM

Compound: Nc1nc(O)c2ncn(COC(CO)CO)c2n1 [Ganciclovir, reference compound]
- Cytotoxicity MCC (minimum cytotoxic concentration) [1]: >350 µM

Compound: CCOC(=O)[C@H](C)NP(=O)(COCCOc1cc(N)nc(N)n1)N[C@@H](C)C(=O)OCC [Compound 5, Bis(L-alanineethyl ester) prodrug of 2,4-diamino-6-[2-(phosphonomethoxy)ethoxy]pyrimidine]
- Anti-vaccinia virus activity (in words) (Vaccinia virus): very low anti-vaccinia virus activity without selectivity
- Cytotoxicity MCC (minimum cytotoxic concentration) [1]: 217 µM
- Fold more active than parental drug PMEO-DAPy (HSV) (HSV): 6–20 fold
- Selectivity index (SI, ratio CC50/EC50) HSV (HSV; range over HSV strains): 4–15
- Fold more active than parental drug PMEO-DAPy (VZV) (VZV): 3–16 fold
- Selectivity index (SI, ratio CC50/EC50) VZV (VZV; range over VZV strains): 15–52
- EC50 (HCMV; Human betaherpesvirus 5, HEL): 17 to 29 µM
- Selectivity index (SI, ratio CC50/EC50) HCMV (HCMV; range over HCMV strains): ≤ 1

Compound: CC(C)OC(=O)OCOP(=O)(O)COCCn1cnc(N)nc1=O [Compound 8, (Isopropoxycarbonyl)oxymethyl ester of 1-[2-(phosphonomethoxy)ethyl]-5-azacytosine]
- Cytotoxicity MCC (minimum cytotoxic concentration) [1]: >100 µM
- Anti-herpesvirus activity (in words) [2]: minimal or no anti-herpesvirus activities

Compound: Bis[(isopropoxycarbonyl)oxymethyl] ester of 2,4-diamino-6-[2-(phosphonomethoxy)ethoxy]pyrimidine [Compound 4]
- EC50 (HSV-2 (G)): 1.01 ± 0.86 µM
- EC50 (HSV-1 TK− KOS ACVr): 3.7 ± 3 µM
- EC50 (VZV TK+ (Oka)): 0.32 ± 0.37 µM
- EC50 (VZV TK− (07-1)): 0.29 ± 0.19 µM
- EC50 (HCMV (AD-169)): 90.1 µM
- EC50 (HCMV (Davis)): 86.3 ± 5.4 µM
- Anti-vaccinia virus activity (in words) (Vaccinia virus): very low anti-vaccinia virus activity without selectivity
- EC50 (Vaccinia virus): 160 ± 60 µM
- Cytotoxicity MCC (minimum cytotoxic concentration) [1]: >202 µM
- Fold more active than parental drug PMEO-DAPy (HSV) (HSV): 6–20 fold
- Selectivity index (SI, ratio CC50/EC50) HSV (HSV; range over HSV strains): 4–15
- Fold more active than parental drug PMEO-DAPy (VZV) (VZV): 3–16 fold
- Selectivity index (SI, ratio CC50/EC50) VZV (VZV; range over VZV strains): 15–52
- Selectivity index (SI, ratio CC50/EC50) HCMV (HCMV; range over HCMV strains): ≤ 1
- EC50 (HCMV; range over HCMV strains, HEL cells): 86 to 90 µM

Compound: CCOC(=O)[C@H](Cc1ccccc1)NP(=O)(O)COCCn1cnc(N)nc1=O [Compound 13, (L-Phenylalanine ethyl ester) prodrug of 1-[2-(phosphonomethoxy)ethyl]-5-azacytosine]
- Cytotoxicity MCC (minimum cytotoxic concentration) [1]: >100 µM
- Anti-herpesvirus activity (in words) [2]: lacked activity against herpesviruses

Compound: COP(=O)(O)COCCn1cnc(N)nc1=O [Compound 14, Methyl ester of [2-(phosphonomethoxy)ethyl]-5-azacytosine]
- Cytotoxicity MCC (minimum cytotoxic concentration) [1]: >100 µM
- Anti-herpesvirus activity (in words) [2]: lacked activity against herpesviruses

Compound: Nc1cc(OCCOCP(=O)(O)O)nc(N)n1 [Compound 1, 2,4-diamino-6-[2-(phosphonomethoxy)ethoxy]pyrimidine]
- Cytotoxicity MCC (minimum cytotoxic concentration) [1]: >100 µM
- Selectivity index (SI, ratio CC50/EC50) HSV (HSV; range over HSV strains): 1.7–4.5
- Selectivity index (SI, ratio CC50/EC50) VZV (VZV; range over VZV strains): 19–44

Compound: CC(C)(C)C(=O)OCOP(=O)([O-])COCCOc1cc(N)nc(N)n1.[Na+] [Compound 3, Pivaloyloxymethyl ester of 2,4-diamino-6-[2-(phosphonomethoxy)ethoxy]-pyrimidine]
- Cytotoxicity MCC (minimum cytotoxic concentration) [1]: >100 µM
- Anti-herpesvirus activity (in words) [2]: potency and selectivity virtually identical to PMEO-DAPy

Compound: CCOC(=O)[C@H](Cc1ccccc1)NP(=O)(COCCn1cnc(N)nc1=O)N[C@@H](Cc1ccccc1)C(=O)OCC [Compound 12, Bis(L-phenylalanineethyl ester) prodrug of 1-[2-(phosphonomethoxy)ethyl]-5-azacytosine]
- Cytotoxicity MCC (minimum cytotoxic concentration) [1]: >100 µM
- EC50 (HSV): 32 to 42 µM
- EC50 (VZV): 27 to 29 µM
- EC50 (HCMV; Human betaherpesvirus 5, HEL): 7.5 to 15.5 µM

Compound: CC(C)(C)C(=O)OCOP(=O)([O-])COCCn1cnc(N)nc1=O.[Na+] [Compound 10, Pivaloyloxymethyl ester of 1-[2-(phosphonomethoxy)ethyl]-5-azacytosine, sodium salt]
- Cytotoxicity MCC (minimum cytotoxic concentration) [1]: >275 µM
- Anti-herpesvirus activity (in words) [2]: minimal or no anti-herpesvirus activities

Compound: CCCCCCCCCCCCCCCCCCOCCOP(=O)(O)COCCn1cnc(N)nc1=O [Compound 17, Octadecyloxyethyl ester of 1-[2-(phosphonomethoxy)ethyl]-5-azacytosine]
- Cytotoxicity MCC (minimum cytotoxic concentration) [1]: 100 ± 0 µM
- EC50 (HSV): 0.15 to 0.35 µM
- Selectivity index (SI, ratio CC50/EC50) HSV (HSV; range over HSV strains): 226–528
- EC50 (VZV): 0.32 to 0.8 µM
- Selectivity index (SI, ratio CC50/EC50) VZV (VZV; range over VZV strains): 100–248
- EC50 (HCMV; Human betaherpesvirus 5, HEL): 0.24 to 1.12 µM
- Selectivity index (SI, ratio CC50/EC50) HCMV (HCMV; range over HCMV strains): 71–330

Compound: CC(C)(C)C(=O)OCOP(=O)(COCCn1cnc(N)nc1=O)OCOC(=O)C(C)(C)C [Compound 9, Bis(pivaloyloxymethyl) ester of 1-[2-(phosphonomethoxy)ethyl]-5-azacytosine]
- Cytotoxicity MCC (minimum cytotoxic concentration) [1]: 209 µM
- EC50 (HSV): 0.7 to 1.3 µM
- Selectivity index (SI, ratio CC50/EC50) HSV (HSV; range over HSV strains): 37–63
- EC50 (VZV): 0.7 to 1.3 µM
- Selectivity index (SI, ratio CC50/EC50) VZV (VZV; range over VZV strains): 35–71
- EC50 (HCMV; Human betaherpesvirus 5, HEL): 1 to 3 µM
- Selectivity index (SI, ratio CC50/EC50) HCMV (HCMV; range over HCMV strains): 14–47

Compound: CC(C)(C)C(=O)OCOP(=O)(COCCOc1cc(N)nc(N)n1)OCOC(=O)C(C)(C)C [Compound 2, Bis(pivaloyloxymethyl) ester of 2,4-diamino-6-[2-(phosphonomethoxy)ethoxy]pyrimidine]
- EC50 (Vaccinia virus; Orthopoxvirus vaccinia, HEL): ≥ 20 µM
- Cytotoxicity MCC (minimum cytotoxic concentration) [1]: ≥100 µM
- Fold more cytostatic than PMEO-DAPy [3]: 5.5 fold
- Fold more active than PMEO-DAPy (anti-herpesvirus activity) [2]: 2 to 4.5 fold
